In US20070219214A1, “Dual NK2/NK3-antagonists, pharmaceutical compositions comprising them, and processes for their preparation” (Solvay pharmaceuticals GmbH, priority 2006, published 2007):

Tests used:
human NK3 receptor = target: T1, human NK3 receptor (Homo sapiens, UniProt P29371); assay: Binding potency of the test substances to NK3-receptors in vitro ([3H]-SR 142801 displacement); parameters: expressed in transfected cells; host or cells: CHO cells (membrane preparation); settings: human NK3-receptor in CHO cell membranes, [3H]-SR 142801 (osanetant), average of at least three measurements; for Ki: read-out: pKi, binding potency to NK3-receptors (converted)
T1 sequence (P29371 1-465): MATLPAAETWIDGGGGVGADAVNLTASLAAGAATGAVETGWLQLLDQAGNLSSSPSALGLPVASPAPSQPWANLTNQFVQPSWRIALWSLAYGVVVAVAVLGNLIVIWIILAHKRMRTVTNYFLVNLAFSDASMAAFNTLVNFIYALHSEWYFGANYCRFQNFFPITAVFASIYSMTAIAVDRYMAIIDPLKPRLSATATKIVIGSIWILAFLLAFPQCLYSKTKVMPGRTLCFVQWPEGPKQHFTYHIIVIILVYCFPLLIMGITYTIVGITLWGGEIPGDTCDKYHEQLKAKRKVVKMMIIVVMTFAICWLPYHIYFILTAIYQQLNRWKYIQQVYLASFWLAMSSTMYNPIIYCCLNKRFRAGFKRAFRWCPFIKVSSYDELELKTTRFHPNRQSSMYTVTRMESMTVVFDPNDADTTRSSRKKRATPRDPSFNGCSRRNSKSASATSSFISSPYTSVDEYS
From the text: 3. Determination of the Binding Potency of the Test Substances to NK3-Receptors in Vitro
The affinity of test compounds for NK3-receptors can be determined by measuring the ability of the test compound to displace a radiolabeled ligand from its specific binding site.
(§1) The radiolabel used in this assay is [^3H]-SR 142801 (osanetant). Receptors were obtained from membrane preparations of CHO-cells (Chinese Hamster Ovary cells), in which the human NK3-receptor was stably expressed. Membranes were incubated with [^3H]-osanetant in the absence or presence of test compounds at different concentrations, diluted in a buffer system. Separation of bound radioactivity from free radioactivity was done by filtration through glass fiber filters (Packard GF/B) with several washings with ice-cold buffer solution. Bound radioactivity was measured with a liquid scintillation counter (total binding). Unspecific binding was determined by incubation with an excess (1 μmol/l) of unlabeled osanetant. Specific binding is obtained by subtracting the unspecific binding from the total binding.
(§2) Radioactivity of the specific binding was plotted against the concentration of the test compound and IC50 values, i.e. the concentration of test compound by which 50% of the radioligand is displaced, were calculated. The inhibition constant (Ki) was calculated according to the Cheng-Prusoff equation, and listed as its negative logarithmic value (pKi) The pKi value describes the potency of a test compound to bind to a receptor.
(§3) The average result of all measurements is listed above.

human NK2-receptor = target: T2, human NK2-receptor (Homo sapiens, UniProt P21452); assay: Binding potency of the test substances to NK2-receptors in vitro ([3H]-SR 48968 displacement); parameters: expressed in transfected cells; host or cells: CHO cells (membrane preparation); settings: human NK2-receptor in CHO cell membranes, [3H]-SR 48968 (saredutant); average of at least three measurements; read-out: pKi, binding potency to NK2-receptors (converted)
T2 sequence (P21452 1-398): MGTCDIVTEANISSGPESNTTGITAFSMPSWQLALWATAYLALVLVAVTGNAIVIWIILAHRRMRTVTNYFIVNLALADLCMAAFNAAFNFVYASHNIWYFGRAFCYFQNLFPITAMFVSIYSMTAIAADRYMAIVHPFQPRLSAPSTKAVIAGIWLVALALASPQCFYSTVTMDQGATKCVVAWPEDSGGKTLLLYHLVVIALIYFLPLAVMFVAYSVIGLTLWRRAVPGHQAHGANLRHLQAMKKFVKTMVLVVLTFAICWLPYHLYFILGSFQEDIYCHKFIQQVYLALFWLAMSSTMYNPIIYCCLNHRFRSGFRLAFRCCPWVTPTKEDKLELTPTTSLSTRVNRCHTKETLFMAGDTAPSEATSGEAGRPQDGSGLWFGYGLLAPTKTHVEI
From the text: 2. Determination of the Binding Potency of the Test Substances to NK2-Receptors in Vitro
The affinity of test compounds for NK2-receptors can be determined by measuring the ability of the test compound to displace a radiolabeled ligand from its specific binding site.
as §1, with “48968 (saredutant).” for “142801 (osanetant).”, “NK2-receptor” for “NK3-receptor”, “[^3H]-saredutant” for “[^3H]-osanetant”, “(0.1” for “(1”, “saredutant.” for “osanetant.”
as §2, with “(pKi).” for “(pKi)”
as §3

## CN(C)C(=O)C1(N2CCCCC2)CCN(CC[C@H](CN(C)C(=O)C(Cc2ccc(-c3ccccc3)cc2)NC(=O)C(C)(C)C)c2ccc(Cl)c(Cl)c2)CC1 (some centres unmarked) [compound 60]
Human NK3 receptor
  pKi, binding potency to NK3-receptors: 7.2

## CN(C)C(=O)C1(N2CCCCC2)CCN(CCC(CN(C)C(=O)CC(c2ccccc2)c2ccccc2)c2ccc(Cl)c(Cl)c2)CC1 (centres unmarked) [compound 28]
Human NK2-receptor
  Ki: 0.02 µM

## CN(C)C(=O)C1(N2CCCCC2)CCN(CCC(CN(C)C(=O)c2ccccc2C(=O)O)c2ccc(Cl)c(Cl)c2)CC1 (centres unmarked) [compound 25]
Human NK2-receptor
  Ki: 0.00501 µM
Human NK3 receptor
  Ki: 0.0631 µM

## COc1ccc(C(=O)N(C)CC(CCN2CCC(C(=O)N(C)C)(N3CCCCC3)CC2)c2ccc(Cl)c(Cl)c2)cc1 (centres unmarked) [compound 85]
Human NK2-receptor
  Ki: 0.0126 µM
Human NK3 receptor
  Ki: 0.0501 µM

## CN(C)C(=O)C1(N2CCCCC2)CCN(CCC(CN(C)C(=O)c2cccc3ccccc23)c2ccc(Cl)c(Cl)c2)CC1 (centres unmarked) [compound 92]
Human NK2-receptor
  Ki: 0.02 µM

## CN(C)C(=O)C1(N2CCCCC2)CCN(CCC(CN(C)C(=O)c2cccn2C)c2ccc(Cl)c(Cl)c2)CC1 (centres unmarked) [compound 30]
Human NK2-receptor
  Ki: 0.00251 µM
Human NK3 receptor
  Ki: 0.02 µM

## CN(C)C(=O)C1(N2CCCCC2)CCN(CCC(CN(C)C(=O)c2cc(=O)c3ccccc3o2)c2ccc(Cl)c(Cl)c2)CC1 (centres unmarked) [compound 45]
Human NK2-receptor
  Ki: 0.00251 µM
Human NK3 receptor
  Ki: 0.0126 µM

## CN(C)C(=O)C1CCCCN1C1CCN(CC[C@H](CN(C)C(=O)c2ccccc2)c2ccc(Cl)c(Cl)c2)CC1 (some centres unmarked) [compound 100]
Human NK2-receptor
  Ki: 0.00316 µM

## CN(C)C(=O)C1(N2CCCCC2)CCN(CCC(CN(C)C(=O)c2c(Cl)cccc2Cl)c2ccc(Cl)c(Cl)c2)CC1 (centres unmarked) [compound 76]
Human NK2-receptor
  Ki: 0.0158 µM
Human NK3 receptor
  Ki: 0.0501 µM

## CN(C)C(=O)C1(N2CCCCC2)CCN(CCC(CN(C)C(=O)CCc2ccc(O)cc2)c2ccc(Cl)c(Cl)c2)CC1 (centres unmarked) [compound 29]
Human NK2-receptor
  Ki: 0.00251 µM
Human NK3 receptor
  Ki: 0.0501 µM

## COc1ccc(-c2ocnc2C(=O)N(C)CC(CCN2CCC(C(=O)N(C)C)(N3CCCCC3)CC2)c2ccc(Cl)c(Cl)c2)cc1 (centres unmarked) [compound 66]
Human NK3 receptor
  Ki: 0.02 µM

## CN(C)C(=O)C1(N2CCCCC2)CCN(CCC(CN(C)C(=O)Cc2c[nH]c3ccccc23)c2ccc(Cl)c(Cl)c2)CC1 (centres unmarked) [compound 40]
Human NK2-receptor
  Ki: 0.0126 µM
Human NK3 receptor
  Ki: 0.0631 µM

## CN(C)C(=O)C1(N2CCCCC2)CCN(CCC(CN(C)C(=O)c2ccccc2F)c2ccc(Cl)c(Cl)c2)CC1 (centres unmarked) [compound 72]
Human NK2-receptor
  Ki: 0.00316 µM
Human NK3 receptor
  Ki: 0.0398 µM

## CN(C)C(=O)C1(N2CCCCC2)CCN(CCC(CN(C)C(=O)c2ccccc2Br)c2ccc(Cl)c(Cl)c2)CC1 (centres unmarked) [compound 71]
Human NK2-receptor
  Ki: 0.00501 µM
Human NK3 receptor
  Ki: 0.0398 µM

## CN(C)C(=O)C1(N2CCCCC2)CCN(CCC(CN(C)C(=O)c2ccncc2)c2ccc(Cl)c(Cl)c2)CC1 (centres unmarked) [compound 44]
Human NK2-receptor
  Ki: 0.00501 µM
Human NK3 receptor
  Ki: 0.0316 µM

## CN(C)C(=O)C1(N2CCCCC2)CCN(CCC(CN(C)C(=O)Cc2ccc(-c3ccccc3)cc2)c2ccc(Cl)c(Cl)c2)CC1 (centres unmarked) [compound 33]
Human NK2-receptor
  Ki: 0.0794 µM
Human NK3 receptor
  Ki: 0.0316 µM

## CN(C)C(=O)C1(N2CCCCC2)CCN(CCC(CN(C)C(=O)c2ccc(Cl)cc2Cl)c2ccc(Cl)c(Cl)c2)CC1 (centres unmarked) [compound 75]
Human NK2-receptor
  Ki: 0.00501 µM
Human NK3 receptor
  Ki: 0.0398 µM

## CN(C)C(=O)C1(N2CCCCC2)CCN(CCC(CN(C)C(=O)C2CC2c2ccccc2)c2ccc(Cl)c(Cl)c2)CC1 (centres unmarked) [compound 90]
Human NK2-receptor
  Ki: 0.0126 µM
Human NK3 receptor
  Ki: 0.0794 µM

## CN(C)C(=O)C1(N2CCCCC2)CCN(CCC(CN(C)C(=O)c2c(F)c(F)c(F)c(F)c2F)c2ccc(Cl)c(Cl)c2)CC1 (centres unmarked) [compound 73]
Human NK2-receptor
  Ki: 0.0126 µM
Human NK3 receptor
  Ki: 0.0398 µM

## CN(C)C(=O)C1(N2CCCCC2)CCN(CCC(CN(C)C(=O)c2ccsc2)c2ccc(Cl)c(Cl)c2)CC1 (centres unmarked) [compound 38]
Human NK2-receptor
  Ki: 0.00158 µM
Human NK3 receptor
  Ki: 0.0251 µM

## CN(C)C(=O)C1(N2CCCCC2)CCN(CCC(CN(C)C(=O)c2cc3ccccc3[nH]2)c2ccc(Cl)c(Cl)c2)CC1 (centres unmarked) [compound 39]
Human NK2-receptor
  Ki: 0.02 µM
Human NK3 receptor
  Ki: 0.0316 µM

## CN(C)C(=O)C1(N2CCCCC2)CCN(CCC(CN(C)C(=O)c2ccc(Cl)c(S(N)(=O)=O)c2)c2ccc(Cl)c(Cl)c2)CC1 (centres unmarked) [compound 47]
Human NK2-receptor
  Ki: 0.00316 µM
Human NK3 receptor
  Ki: 0.02 µM

## CN(C)C(=O)C1(N2CCCCC2)CCN(CCC(CN(C)C(=O)Cc2cccnc2)c2ccc(Cl)c(Cl)c2)CC1 (centres unmarked) [compound 50]
Human NK2-receptor
  Ki: 0.0398 µM
Human NK3 receptor
  Ki: 0.01 µM

## CCN(C)C(=O)C1(N2CCCCC2)CCN(CC[C@H](CN(C)C(=O)c2ccccc2)c2ccc(Cl)c(Cl)c2)CC1 [compound 95, 1′-[(3S)-4-[benzoyl(methyl)amino]-3-(3,4-dichlorophenyl)butyl]-N-ethyl-N-methyl-1,4′-bipiperidine-4′-carboxamide]
Human NK2-receptor
  Ki: ≤ 0.01 µM

## CN(C)C(=O)C1(N2CCCCC2)CCN(CCC(CN(C)C(=O)c2ccc(Cl)cc2)c2ccc(Cl)c(Cl)c2)CC1 (centres unmarked) [compound 84]
Human NK2-receptor
  Ki: 0.0126 µM
Human NK3 receptor
  Ki: 0.0398 µM

## CN(C)C(=O)C1(N2CCCCC2)CCN(CCC(CN(C)C(=O)c2ccc(C#N)cc2)c2ccc(Cl)c(Cl)c2)CC1 (centres unmarked) [compound 91]
Human NK2-receptor
  Ki: 0.00794 µM
Human NK3 receptor
  Ki: 0.0158 µM

## CN(C)C(=O)C1(N2CCCCC2)CCN(CCC(CN(C)C(=O)Cc2ccccc2)c2ccc(Cl)c(Cl)c2)CC1 (centres unmarked) [compound 89]
Human NK2-receptor
  Ki: 0.0126 µM
Human NK3 receptor
  Ki: 0.0158 µM

## CN(C)C(=O)C1(N2CCCCC2)CCN(CCC(CN(C)C(=O)c2cnccn2)c2ccc(Cl)c(Cl)c2)CC1 (centres unmarked) [compound 42]
Human NK2-receptor
  Ki: 0.0158 µM

## Cc1ccc(C(=O)N(C)CC(CCN2CCC(C(=O)N(C)C)(N3CCCCC3)CC2)c2ccc(Cl)c(Cl)c2)cc1 (centres unmarked) [compound 87]
Human NK2-receptor
  Ki: 0.00794 µM
Human NK3 receptor
  Ki: 0.0398 µM

## CN(C)C(=O)C1(N2CCCCC2)CCN(CCC(CN(C)C(=O)Cc2cc(O)nc(O)n2)c2ccc(Cl)c(Cl)c2)CC1 (centres unmarked) [compound 57]
Human NK3 receptor
  Ki: 0.0631 µM

## CN(C)C(=O)C1(N2CCCCC2)CCN(CCC(CN(C)C(=O)c2ccc3c(c2)OC(F)(F)O3)c2ccc(Cl)c(Cl)c2)CC1 (centres unmarked) [compound 63]
Human NK2-receptor
  Ki: 0.00398 µM
Human NK3 receptor
  Ki: 0.02 µM

## CN(C)C(=O)C1CCCCN1C1CCN(CC[C@H](CN(C)C(=O)c2ccccc2)c2ccc(Cl)c(Cl)c2)CC1 (stereo partly drawn) [compound 100, 1′-[(3S)-4-[benzoyl(methyl)amino]-3-(3,4-dichlorophenyl)-butyl]-N,N-dimethyl-1,4′-bipiperidine-2-carboxamide]
Human NK2-receptor
  Ki: ≤ 0.01 µM

## CSc1ncc(C(=O)N(C)CC(CCN2CCC(C(=O)N(C)C)(N3CCCCC3)CC2)c2ccc(Cl)c(Cl)c2)n1Cc1ccccc1 (centres unmarked) [compound 20]
Human NK2-receptor
  Ki: 0.0251 µM

## CN(C)C(=O)C1(N2CCCCC2)CCN(CCC(CN(C)C(=O)c2ccc(-c3ccccc3)cc2)c2ccc(Cl)c(Cl)c2)CC1 (centres unmarked) [compound 27]
Human NK2-receptor
  Ki: 0.0158 µM

## CN(C)C(=O)C1(N2CCCCC2)CCN(CCC(CN(C)C(=O)c2ccc[nH]2)c2ccc(Cl)c(Cl)c2)CC1 (centres unmarked) [compound 35]
Human NK2-receptor
  Ki: 0.00316 µM

## CN(C)C(=O)C1(N2CCCCC2)CCN(CCC(CN(C)C(=O)c2ccc(NC(=O)OC(C)(C)C)cc2)c2ccc(Cl)c(Cl)c2)CC1 (centres unmarked) [compound 54]
Human NK3 receptor
  Ki: 0.00631 µM
